Measurements published in PubChem BioAssay (NCI).
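Grown in 96-well plates, cells were treated for 48 hours with each compound at five concentrations. Insufficient inhibition: endpoint recorded as highest concentration tested. TGI: concentration producing complete growth inhibition.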

Tests used:
Test in all cases: NCI anticancer screen, dose series, 48 h
[1] = system: ACHN renal
[2] = system: CCRF-CEM leukemia
[3] = system: SK-OV-3 ovarian
[4] = system: SN12C renal
[5] = system: A498 renal
[6] = system: U251 CNS
[7] = system: SF-539 CNS
[8] = system: IGROV1 ovarian
[9] = system: HOP-62 NSCLC
[10] = system: MDA-N
[11] = system: OVCAR-3 ovarian
[12] = system: SK-MEL-5 melanoma
[13] = system: MDA-MB-231 breast
[14] = system: SF-295 CNS
[15] = system: MALME-3M melanoma
[16] = system: A549 NSCLC
[17] = system: COLO 205 colon
[18] = system: HCT-15 colon
[19] = system: OVCAR-4 ovarian
[20] = system: HCC-2998 colon
[21] = system: BT-549 breast
[22] = system: OVCAR-5 ovarian
[23] = system: HS 578T breast
[24] = system: NCI-H23 lung
[25] = system: SW-620 colon
[26] = system: RPMI-8226 leukemia
[27] = system: DU-145 prostate
[28] = system: SNB-75 CNS
[29] = system: SNB-19 CNS
[30] = system: CAKI-1 renal
[31] = system: MCF7 breast
[32] = system: HT29 colon
[33] = system: UACC-257 melanoma
[34] = system: UACC-62 melanoma
[35] = system: HOP-92 NSCLC
[36] = system: OVCAR-8 ovarian
[37] = system: HCT-116 colon
[38] = system: NCI-H522 lung
[39] = system: MOLT-4 leukemia
[40] = system: M14 melanoma
[41] = system: EKVX NSCLC
[42] = system: NCI-H226 lung
[43] = system: UO-31 renal
[44] = system: 786-0 renal
[45] = system: SK-MEL-2 melanoma
[46] = system: MDA-MB-435
[47] = system: NCI-H460 lung
[48] = system: SK-MEL-28 melanoma
[49] = system: HL-60(TB) leukemia
[50] = system: NCI/ADR-RES ovarian
[51] = system: SF-268 CNS
[52] = system: PC-3 prostate
[53] = system: LOX IMVI melanoma
[54] = system: T-47D breast
[55] = system: TK-10 renal
[56] = system: KM12 colon
[57] = system: RXF 393 renal
[58] = system: SR leukemia
[59] = system: K-562 leukemia
[60] = system: DMS 114 small cell lung
[61] = system: DMS 273 small cell lung
[62] = system: M19-MEL melanoma
[63] = system: XF 498 CNS
[64] = system: DLD-1 colon
[65] = system: SNB-78 CNS

Cc1cccc(C2NC(=O)c3ccccc3N2)c1 (stereo unspecified)
TGI [1]: > 100 µM | TGI [2]: > 100 µM | TGI [3]: > 44.6 µM | TGI [4]: > 100 µM | TGI [5]: > 73.4 µM | TGI [6]: > 31.6 µM | TGI [7]: 9.07 µM | TGI [8]: > 100 µM | TGI [9]: 97.1 µM | TGI [10]: 3.45 µM | TGI [11]: > 100 µM | TGI [12]: > 100 µM | TGI [13]: > 87.6 µM | TGI [14]: > 23.2 µM | TGI [15]: > 100 µM | TGI [16]: > 100 µM | TGI [17]: > 100 µM | TGI [18]: > 100 µM | TGI [19]: > 100 µM | TGI [20]: > 100 µM | TGI [21]: > 100 µM | TGI [22]: > 100 µM | TGI [23]: 65.1 µM | TGI [24]: > 54.7 µM | TGI [25]: > 100 µM | TGI [26]: > 27 µM | TGI [27]: > 100 µM | TGI [28]: > 100 µM | TGI [29]: > 100 µM | TGI [30]: > 100 µM | TGI [31]: > 100 µM | TGI [32]: > 26.3 µM | TGI [33]: > 100 µM | TGI [34]: > 100 µM | TGI [35]: > 100 µM | TGI [36]: > 100 µM | TGI [37]: > 100 µM | TGI [38]: 46.1 µM | TGI [39]: > 23.9 µM | TGI [40]: > 54.8 µM | TGI [41]: > 100 µM | TGI [42]: 50.5 µM | TGI [43]: > 100 µM | TGI [44]: > 100 µM | TGI [45]: > 42.8 µM | TGI [46]: 2.77 µM | TGI [47]: > 100 µM | TGI [48]: > 100 µM | TGI [49]: > 27.2 µM | TGI [50]: > 47.2 µM | TGI [51]: > 100 µM | TGI [52]: > 100 µM | TGI [53]: > 100 µM | TGI [54]: > 100 µM | TGI [55]: > 100 µM | TGI [56]: > 100 µM | TGI [57]: > 23.7 µM | TGI [58]: > 100 µM

COc1cc(CCNC2=CC(=O)c3nc[nH]c3C2=O)ccc1O
TGI [1]: > 100 µM | TGI [2]: > 100 µM | TGI [3]: 90.2 µM | TGI [4]: > 100 µM | TGI [5]: 71 µM | TGI [6]: 63.3 µM | TGI [7]: > 100 µM | TGI [8]: 52.8 µM | TGI [9]: > 100 µM | TGI [10]: 32.5 µM | TGI [11]: 30.5 µM | TGI [12]: 27.6 µM | TGI [13]: > 100 µM | TGI [14]: 96.4 µM | TGI [15]: 26.1 µM | TGI [16]: 68.3 µM | TGI [59]: > 100 µM | TGI [17]: 56.5 µM | TGI [18]: > 100 µM | TGI [19]: 29 µM | TGI [20]: 43 µM | TGI [21]: 42 µM | TGI [22]: 35.8 µM | TGI [23]: 72.8 µM | TGI [24]: 48.6 µM | TGI [25]: 58.6 µM | TGI [26]: 68.7 µM | TGI [27]: 34.6 µM | TGI [28]: 40.4 µM | TGI [29]: 33.3 µM | TGI [30]: > 100 µM | TGI [31]: 33.5 µM | TGI [32]: 53.9 µM | TGI [33]: 34.8 µM | TGI [34]: 36.8 µM | TGI [35]: 73.3 µM | TGI [36]: 47.6 µM | TGI [37]: 48 µM | TGI [38]: 62.3 µM | TGI [39]: 89.1 µM | TGI [40]: 33.5 µM | TGI [41]: 47.4 µM | TGI [42]: 86.8 µM | TGI [43]: > 100 µM | TGI [44]: > 100 µM | TGI [45]: 52.1 µM | TGI [46]: 31.4 µM | TGI [47]: > 100 µM | TGI [48]: 60.4 µM | TGI [49]: 60.8 µM | TGI [50]: > 100 µM | TGI [51]: > 100 µM | TGI [52]: > 100 µM | TGI [53]: 45.7 µM | TGI [54]: 73.2 µM | TGI [55]: 87.5 µM | TGI [56]: 82.2 µM | TGI [57]: > 100 µM | TGI [58]: 98.4 µM

O=c1c2cccnc2ncn1CCCN1CCCCC1
TGI [1]: > 100 µM | TGI [2]: > 100 µM | TGI [3]: > 100 µM | TGI [4]: > 100 µM | TGI [6]: > 100 µM | TGI [7]: > 100 µM | TGI [8]: > 100 µM | TGI [9]: > 100 µM | TGI [11]: > 100 µM | TGI [60]: > 100 µM | TGI [12]: > 100 µM | TGI [14]: > 100 µM | TGI [15]: > 100 µM | TGI [16]: > 100 µM | TGI [59]: > 100 µM | TGI [17]: > 100 µM | TGI [19]: > 100 µM | TGI [22]: > 100 µM | TGI [24]: > 100 µM | TGI [25]: > 100 µM | TGI [28]: > 100 µM | TGI [29]: > 100 µM | TGI [30]: > 100 µM | TGI [32]: > 100 µM | TGI [34]: > 100 µM | TGI [35]: > 100 µM | TGI [36]: > 100 µM | TGI [37]: > 100 µM | TGI [61]: > 100 µM | TGI [38]: > 100 µM | TGI [39]: > 100 µM | TGI [40]: > 100 µM | TGI [41]: > 100 µM | TGI [42]: > 100 µM | TGI [43]: > 100 µM | TGI [62]: > 100 µM | TGI [44]: > 100 µM | TGI [45]: > 100 µM | TGI [47]: > 100 µM | TGI [48]: > 100 µM | TGI [51]: > 100 µM | TGI [53]: > 100 µM | TGI [63]: > 100 µM | TGI [64]: > 100 µM | TGI [55]: > 100 µM | TGI [65]: > 100 µM | TGI [56]: > 100 µM | TGI [57]: > 100 µM | TGI [58]: > 100 µM

CC1OC(OC2C(O[C@H]3CC[C@@]4(C)C(=CC[C@H]5[C@@H]6C[C@@H]7O[C@]8(CC[C@@H](C)CO8)[C@@H](C)[C@@H]7[C@@]6(C)CC[C@@H]54)C3)OC(CO)C(O)C2OC2OC(CO)C(O)C(O)C2O)C(O)C(O)C1O (stereo partly specified)
TGI [1]: 3.29 µM | TGI [2]: > 100 µM | TGI [3]: 3.19 µM | TGI [5]: 3.15 µM | TGI [7]: 5.23 µM | TGI [8]: 3.3 µM | TGI [9]: 4.21 µM | TGI [10]: 3.17 µM | TGI [11]: 2.69 µM | TGI [12]: 4.36 µM | TGI [13]: 2.98 µM | TGI [14]: 4.41 µM | TGI [15]: 3.26 µM | TGI [16]: 3.35 µM | TGI [59]: > 100 µM | TGI [17]: 3.41 µM | TGI [18]: 4.03 µM | TGI [19]: 3.31 µM | TGI [20]: 3.34 µM | TGI [21]: 4.73 µM | TGI [22]: > 20.6 µM | TGI [23]: 3.74 µM | TGI [24]: 3.44 µM | TGI [25]: 4.39 µM | TGI [27]: 4.09 µM | TGI [28]: 3.7 µM | TGI [29]: 3.46 µM | TGI [30]: 5.07 µM | TGI [31]: 4.55 µM | TGI [32]: > 100 µM | TGI [33]: 3.65 µM | TGI [35]: 3.68 µM | TGI [36]: > 100 µM | TGI [38]: 3.42 µM | TGI [39]: > 23.3 µM | TGI [41]: > 21.9 µM | TGI [43]: 3.5 µM | TGI [44]: 2.97 µM | TGI [45]: 3.45 µM | TGI [46]: 3.73 µM | TGI [48]: 3.68 µM | TGI [50]: 4.93 µM | TGI [51]: 3.7 µM | TGI [52]: 3.55 µM | TGI [53]: 5.9 µM | TGI [54]: 4.65 µM | TGI [55]: 4.01 µM | TGI [56]: 4.49 µM | TGI [57]: 4.43 µM | TGI [58]: > 100 µM
